Source: US9814726B2, “Composition for preventing or treating fatty liver diseases” (LG CHEM, LTD., priority 2014, dated 2017)

Columns and labels:
[1] = system: C57BL/6J Lep(−/−) male (ob/ob) mice; assay: Obese fatty liver model: ob/ob mice on normal chow diet, oral treatment for 4 weeks, liver and serum analysis; format: in vivo, mouse
Method: As experimental animals, 6-week-old male ob/+ mouse for control, and 6-week-old C57BL/6J Lep(−/−) male (ob/ob) mice were purchased from Harlan (Indianapolis, Ind.). The purchased mice were maintained under standard condition (25° C., 55% humidity and 12-hour light periodicity) with normal chow diet. 30 mice were divided into 3 groups, 10 mice in each group. Group 1 included 10 C57BL/6J(ob/+ control group) mice, Group 2 was vehicle-treated 10 ob/ob mice treated with saline solution, and Group 3 was a group in which (tetrahydropyran-4-yl)-[2-phenyl-5-(1,1-dioxo-thiomorpholin-4-yl)methyl-1H-indol-7-yl]amine (LG Life Sciences Ltd., Daejeon, Republic of Korea) was treated once a day by 20 mg/kg dosage. Saline solution and (tetrahydropyran-4-yl)-[2-phenyl-5-(1,1-dioxo-thiomorpholin-4-yl)methyl-1H-indol-7-yl]amine solution were orally administered for 4 weeks. After treatment, animals were anesthetized and sacrificed, and livers were rapidly taken and stored for the next analysis. […]

[2] = system: ob/ob mice with MCD diet; assay: Steatohepatitis model accompanying obesity: ob/ob mice with MCD (methionine choline-deficient) diet; format: in vivo, mouse
[3] = ob/ob mice, 20 mg/kg/day, FIG. 2
[4] = ob/ob mice, oral 20 mg/kg once a day, 4 weeks, p<0.001 vs vehicle
[5] = ob/ob mice, oral 20 mg/kg once a day, 4 weeks, vs vehicle
[6] = 20 mg/kg/day, vs vehicle-treated group, FIG. 5A/5B

O=S1(=O)CCN(Cc2cc(NC3CCOCC3)c3[nH]c(-c4ccccc4)cc3c2)CC1 [Comp., (tetrahydropyran-4-yl)-[2-phenyl-5-(1,1-dioxo-thiomorpholin-4-yl)methyl-1H-indol-7-yl]amine]
activation of the mitochondrial respiration chain complexes I, III, IV and V ([1]; ob/ob mice liver, 20 mg/kg/day, FIG. 3): meaningfully increased | OXPHOS complexes I, III, IV and V by BN-PAGE: binding between the complexes ([1]; ob/ob mice treated for 4 weeks, 20 mg/kg/day): enhanced | amount of TBARS (oxidative stress, lipid oxidation) [1, 3]: significant decrease | level of 3-NT (nitrotyrosine) in liver [1, 3]: considerably decreased | amount of TNF-alpha in minced liver samples (ELISA) ([1]; ob/ob mice, 20 mg/kg/day, FIG. 4B): significantly low amount | expression of liver mitochondrial complex I, III, IV and V ([1]; ob/ob mice, 20 mg/kg/day, compared with ob/+ control group, FIG. 3A): remained up to the level of the control group | expression of mRNA of TNF-α in the liver ([1]; ob/ob mice, 20 mg/kg/day, vs vehicle): inhibited | amount of IL-6 mRNA ([1]; ob/ob mice, 20 mg/kg/day, vs vehicle group): no difference | number of 8-OHdG positive liver cells (DNA damage by oxidative stress) ([1]; ob/ob mice, 20 mg/kg/day, vs vehicle, FIG. 2): remarkably low | phosphorylation of NF-κB p65, NF-κB p105, p38 and JNK 1/2 in liver (immunoblotting) ([1]; ob/ob mice, 20 mg/kg/day, vs vehicle, FIG. 4A): significantly decreased | inflammation reaction: infiltration of activated macrophages in liver (immune staining of F4/80 and Cd68) ([1]; ob/ob mice, 20 mg/kg/day, vs vehicle, FIG. 4C and 4D): decreased | fatty tissue in liver (H&E staining) ([1]; ob/ob mice, oral 20 mg/kg once a day, 4 weeks, FIG. 1): remarkably decreased | TG level in the blood serum ([1]; ob/ob mice, oral 20 mg/kg once a day, 4 weeks, between groups (data not shown)): did not show much difference | amount of liver TG [1, 4]: significant decrease | amount of liver cholesterol [1, 4]: significant decrease | ALT value in blood serum [1, 5]: decreased | AST value in blood serum [1, 5]: decreased | Oil-Red O stained area in liver ([1]; ob/ob mice, oral 20 mg/kg once a day, 4 weeks, vs vehicle-treated group): remarkably decreased | amount of ALT in blood serum ([2]; 20 mg/kg/day): remarkably decreased | amount of AST in blood serum ([2]; 20 mg/kg/day): remarkably decreased | liver TG amount ([2]; 20 mg/kg/day (vehicle 400+/−80), FIG. 5C): 210+/−20 mg/g liver | phosphorylation of fibrosis markers (NF-γB p65, NF-κB p105, p38 and JNK 1/2) ([2]; 20 mg/kg/day, FIG. 5D): inhibited | decrease of liver TG amount ([2]; 20 mg/kg/day, vs vehicle, FIG. 5C): about 50% | expression of collagen I (liver fibrosis) [2, 6]: inhibited | intensity of trichrome staining (liver fibrosis) [2, 6]: inhibited
